{"source": "patent US12678416B2", "about": "“L-triiodothyronine (T3) for use in limiting microvascular obstruction” (UNI-PHARMA KLEON TSETIS PHARMACEUTICAL LABORATORIES S.A., priority 2019, dated 2026)", "key": {"isolated rat heart": {"system": "isolated rat heart", "conditions": "ex vivo, cited from earlier work; for myocardial injury as indicated by apoptosis: at the onset of reperfusion"}, "[1]": {"system": "reperfused STEMI patients", "conditions": "high-dose intracoronary, cohort of 247 reperfused STEMI patients; cited from earlier work"}, "[2]": {"assay": "Thy-REPAIR phase II study: T3 levels in serum during hospitalization", "format": "in vivo, patients", "procedure": "(§1) The potential effect of early administration of high dose TH (acute treatment) after an index event has been also investigated in experimental models of ischemia-reperfusion (I/R) using isolated rat heart preparations. […] Thy-REPAIR explores the effects of high-dose T3 treatment intravenously starting immediately after reperfusion and continuing for 48 hours in patients with anterior or anterolateral STEMI undergoing primary PCI. This is a double-blind randomized trial. The primary end point of this study is recovery of myocardial function after 6 months of the index event as this is assessed by Cardiac Magnetic Resonance (CMR) at discharge and at 6 months after acute myocardial infarction. This study also explores the potential effects of T3 treatment on infarct size and cardiac remodeling by assessing changes in LV volumes and geometry.\n(§2) The dose administered is 0.8 μg/kg intravenously bolus starting immediately after successful opening of the culprit vessel has been established in the hemodynamic lab and followed by an infusion of 0.113 μg/kg/h intravenously for 48 hours."}, "STEMI patients [3]": {"system": "STEMI patients", "assay": "Thy-REPAIR: heart rate during hospitalization", "format": "in vivo", "conditions": "during the first 3 days, high dose T3 vs placebo", "procedure": "as §1, §2\nDespite the possible increase in oxygen consumption, no increase in infarct size (IS) is found with T3 in contrast to the current belief (FIG. 3)."}, "[4]": {"system": "STEMI patients after PPCI", "assay": "Thy-REPAIR: contrast-enhanced cardiac magnetic resonance (MVO, infarct size, LV function)", "format": "in vivo", "procedure": "as §1\n(§3) The invention in particular concerns L-triiodothyronine for use in the treatment as set forth in the appending claims. In the broader sense, the present invention concerns L-triiodothyronine for use in the treatment of microvascular obstruction. Treatment of MVO in this context relates to the lessening of microvascular obstruction in comparison to patients which were not supplied with T3. MVO may be determined on the basis of both Cardiac Magnetic Resonance (CMR) imaging, being performed 7-12 days following primary percutaneous coronary intervention (PPCI) and restoration of ST elevation in electrocardiogram (ECG). Infarct size and ejection fraction was measured by CMR. Infarct size was also assessed enzymatically by measuring levels of troponin in blood.\nas §2\nActually, cardiac magnetic resonance with gadolinium represents the gold-standard method for detection of MVO in patients with STEMI. MVO can be quantified in each patient as the percentage of left ventricular (LV) myocardium that is not adequately perfused despite restoration of blood flow in the occluded large coronary artery.\nThe incidence of MVO was assessed using the value of 0.47% as a cut-off point for patients with large and small extent of MVO as previously described. This analysis was additionally performed and provides a strong evidence about the T3 effect on MVO. In the placebo group (n=9), a large extent of MVO was found in 56% of patients consistent with previous published reports in the literature."}, "[5]": {"system": "STEMI patients after PPCI", "assay": "Thy-REPAIR: ST resolution in electrocardiograms on admission and after PPCI", "format": "in vivo", "conditions": "placebo 34%, p=0.05", "text": "as §3, §2\nThese unexpected findings concerning MVO were also supported by other measurements. Changes in ST elevation in electrocardiograms before and after PPCI measured as ST restoration (%) are closely correlated with the extent of MVO (FIG. 6)."}, "STEMI patients [6]": {"system": "STEMI patients", "assay": "Thy-REPAIR: troponin levels in blood over time", "format": "in vivo", "conditions": "T3 vs placebo groups", "text": "as §3, §2\nTroponin levels in blood over time are mainly a measure of myocardial injury. According to the present invention, troponin levels are similar between T3 and placebo groups indicating a similar infarct size in accordance with CMR data. Thus, it seems that the effect of T3 on MVO is independent from infarct size. (FIG. 8)."}, "STEMI patients [7]": {"system": "STEMI patients", "assay": "Thy-REPAIR: left ventricular ejection fraction by echocardiography", "format": "in vivo", "conditions": "early and late after the index event, T3 vs placebo", "procedure": "FIG. 12: Left ventricular ejection fraction assessed by echocardiography at different time points in STEMI patients treated with placebo and T3\nas §2"}, "[8]": {"system": "patients with STEMI and low serum FT3 levels", "conditions": "oral T3 for 6 months, cited from earlier work"}, "[9]": {"system": "patients after acute myocardial infarction", "conditions": "long-term administration of high doses; cited from earlier work"}}, "note": "Entries after “also recorded” stand apart in the source; their conditions may differ.", "data": [{"smiles": "N[C@@H](Cc1cc(I)c(Oc2cc(I)c(O)c(I)c2)c(I)c1)C(=O)O", "note": "[T4, L-thyroxine]", "values": [{"measurement": "myocardial injury as indicated by apoptosis", "setting": "isolated rat heart", "value": "no effect"}]}, {"smiles": "Nc1ncnc2c1ncn2[C@@H]1O[C@H](CO)[C@@H](O)[C@H]1O", "note": "[adenosine]", "values": [{"measurement": "MVO and MI size", "setting": "[1]", "value": "failed to reduce"}]}, {"smiles": "N[C@@H](Cc1cc(I)c(Oc2ccc(O)c(I)c2)c(I)c1)C(=O)O", "note": "[T3, L-triiodothyronine]", "values": [{"measurement": "T3 levels in serum relative to normal range", "setting": "[2]; at discharge (7th day)", "value": "return to normal"}, {"measurement": "T3 levels in serum relative to normal range", "setting": "[2]; for 72 hours", "value": "far above normal range"}, {"measurement": "concentration at 24 h", "setting": "[2]; human, serum, at 24 hours, 0.8 μg/kg iv bolus then 0.113 μg/kg/h iv for 48 hours, placebo 0.79 (0.06), p<0.01", "value": 5.5, "unit": "ng/mL"}, {"measurement": "concentration at 48 h", "setting": "[2]; human, serum, at 48 hours, 0.8 μg/kg iv bolus then 0.113 μg/kg/h iv for 48 hours, placebo 0.76 (0.06), p<0.01", "value": 4.5, "unit": "ng/mL"}, {"measurement": "heart rate", "setting": "STEMI patients [3]", "value": "non-significant increase"}, {"measurement": "extent of mean microvascular obstruction", "setting": "[4]; CMR at discharge (7-12 days after the event), T3 vs placebo", "value": "less"}, {"measurement": "infarct size (IS) by CMR", "setting": "[4]; T3 vs placebo, at discharge", "value": "no increase; also recorded: similar"}, {"measurement": "cardiac function by CMR", "setting": "[4]; at 6 months, T3 vs placebo", "value": "improvement"}, {"measurement": "cardiac function", "setting": "[4]; at discharge and at 6 months", "value": "improved"}, {"measurement": "myocardial function (EF %, LVEDVi and end-systolic volumes by CMR)", "setting": "[4]; at discharge, T3 vs placebo", "value": "improved"}, {"measurement": "recovery of function (ejection fraction at 6 months) versus myocardial injury (infarct size by CMR)", "setting": "[4]; correlation in T3 group", "value": "independent"}, {"measurement": "patients with a large extent of MVO", "setting": "[4]; cut-off 0.47%, T3 group n=12, placebo (n=9) 56%, p=0.05", "value": 25, "unit": "%"}, {"measurement": "mean ST resolution after PPCI", "setting": "[5]", "value": 54, "unit": "%"}, {"measurement": "troponin levels in blood over time", "setting": "STEMI patients [6]", "value": "similar"}, {"measurement": "LV ejection fraction by echocardiography", "setting": "STEMI patients [7]", "value": "improvement"}, {"measurement": "regional cardiac dysfunction", "setting": "[8]; commenced 72 h after onset of STEMI, max 15 μg/m^2/day, 37 patients", "value": "effective in reducing"}, {"measurement": "safety of T3 replacement therapy", "setting": "[8]; commenced 72 h after onset of STEMI", "value": "safe"}, {"measurement": "left ventricular ejection fraction and myocardial infarct size by cardiac MRI", "setting": "[8]", "value": "did not show any benefit"}, {"measurement": "myocardial injury as indicated by apoptosis", "setting": "isolated rat heart", "value": "less"}, {"measurement": "post-ischemic recovery of function", "setting": "isolated rat heart; high dose at the onset of reperfusion", "value": "enhanced"}]}, {"smiles": "N[C@H](Cc1cc(I)c(Oc2cc(I)c(O)c(I)c2)c(I)c1)C(=O)O", "note": "[D-thyroxine]", "values": [{"measurement": "mortality", "setting": "[9]", "value": "increased"}]}]}
